{"source": "PubChem BioAssay AID2005", "about": "(Sanford-Burnham Center for Chemical Genomics, 2009)", "key": {"[1]": {"tested_on": "F442A EGFP cells, EGFP fluorescence, 16 h", "experiment": "EGFP reporter destabilization counter-screen – F442A EGFP cells, fluorescence, counter-screen for p/CIP destabilizer project, dose response (AID 2005);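 also: cells express EGFP alone from a CMV promoter as a counter screen for p/CIP-EGFP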"}, "[2]": {"experiment": "EGFP reporter destabilization counter-screen – F442A EGFP cells, fluorescence, counter-screen for p/CIP destabilizer project, dose response (AID 2005)", "conditions": "F442A EGFP cells, EGFP fluorescence, 16 h, stronger effect = higher value"}}, "note": "Calls of active or inactive are those of the source.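 The calls were made as follows: active = plate Z score at or below -3, or inhibition of at least 30% at 20 µM; inactive = the rest.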", "data": [{"smiles": "COc1ccc(NC(=O)/C(Cl)=C(/Cl)S(=O)Cc2ccc(Cl)cc2)cn1", "note": "(stereo not drawn)", "values": [{"measurement": "IC50", "setting": "[1]", "value": "49.9 µM (inactive)"}, {"measurement": "inhibition", "setting": "[2]; EGFP decrease, at 10 µM", "value": -168, "unit": "%"}]}, {"smiles": "CC(C)(C)c1cc[n+](C2=C([O-])c3ccccc3C(=O)/C2=N\\S(=O)(=O)c2cccs2)cc1", "values": [{"measurement": "IC50", "setting": "[1]", "value": 37.9, "unit": "µM"}, {"measurement": "inhibition", "setting": "[2]; EGFP decrease, at 10 µM", "value": -4.5, "unit": "%"}]}, {"smiles": "CC1CCN(S(=O)(=O)c2ccc3c(c2)C(=NO)c2cc(S(=O)(=O)N4CCC(C)CC4)ccc2-3)CC1", "values": [{"measurement": "IC50", "setting": "[1]", "value": 7.46, "unit": "µM"}, {"measurement": "inhibition", "setting": "[2]; EGFP decrease, at 10 µM", "value": 68.9, "unit": "%"}]}, {"smiles": "Cc1oc2c(c1C(=O)NCc1cccnc1)C(=O)c1ccccc1C2=O", "values": [{"measurement": "IC50", "setting": "[1]", "value": 5.99, "unit": "µM"}, {"measurement": "inhibition", "setting": "[2]; EGFP decrease, at 10 µM", "value": 72, "unit": "%"}]}, {"smiles": "O=C1C(Nc2ccc(O)cc2)=C/C(=N/S(=O)(=O)c2cccs2)c2ccccc21", "values": [{"measurement": "IC50", "setting": "[1]", "value": 5.18, "unit": "µM"}, {"measurement": "inhibition", "setting": "[2]; EGFP decrease, at 10 µM", "value": 66, "unit": "%"}]}, {"smiles": "O=C1C(Cl)=C(NCCN2CCCCC2)C(=O)c2ccccc21", "values": [{"measurement": "IC50", "setting": "[1]", "value": 20.4, "unit": "µM"}, {"measurement": "inhibition", "setting": "[2]; EGFP decrease, at 10 µM", "value": 16.1, "unit": "%"}]}, {"smiles": "CCOC(=O)N=Nc1c2ccccc2c2nc3no[nH]c3nc12", "values": [{"measurement": "IC50", "setting": "[1]", "value": 35.5, "unit": "µM"}, {"measurement": "inhibition", "setting": "[2]; EGFP decrease, at 10 µM", "value": -20.6, "unit": "%"}]}, {"smiles": "CCOC(=O)c1c(C)[nH]c2c1-c1ccccc1C(=O)C2=O", "values": [{"measurement": "IC50", "setting": "[1]", "value": 8.64, "unit": "µM"}, {"measurement": "inhibition", "setting": "[2]; EGFP decrease, at 10 µM", "value": 23.3, "unit": "%"}]}, {"smiles": "O=C1C(Nc2ccccc2)=C/C(=N/S(=O)(=O)c2cccs2)c2ccccc21", "values": [{"measurement": "IC50", "setting": "[1]", "value": 10.4, "unit": "µM"}, {"measurement": "inhibition", "setting": "[2]; EGFP decrease, at 10 µM", "value": 62.1, "unit": "%"}]}, {"smiles": "Cc1ccccc1NC1=C/C(=N\\S(=O)(=O)c2cccs2)c2ccccc2C1=O", "values": [{"measurement": "IC50", "setting": "[1]", "value": 13, "unit": "µM"}, {"measurement": "inhibition", "setting": "[2]; EGFP decrease, at 10 µM", "value": 66.7, "unit": "%"}]}, {"smiles": "Cc1ccc(NC2=C/C(=N\\S(=O)(=O)c3cccs3)c3ccccc3C2=O)c(C)c1", "values": [{"measurement": "IC50", "setting": "[1]", "value": 16, "unit": "µM"}, {"measurement": "inhibition", "setting": "[2]; EGFP decrease, at 10 µM", "value": 60, "unit": "%"}]}, {"smiles": "COc1ccc(CS(=O)/C(Cl)=C(/Cl)C(=O)Nc2ccc(OC)nc2)cc1", "note": "(stereo not drawn)", "values": [{"measurement": "IC50", "setting": "[1]", "value": "48 µM (inactive)"}, {"measurement": "inhibition", "setting": "[2]; EGFP decrease, at 10 µM", "value": -232, "unit": "%"}]}, {"smiles": "O=C(N/N=C\\c1ccc2c(c1)OCO2)c1cncc(Br)c1", "values": [{"measurement": "inhibition", "setting": "[2]; EGFP decrease, at 10 µM", "value": 6.5, "unit": "%"}, {"measurement": "inhibition", "setting": "[2]; at 20 µM", "value": "7.3% (inactive)"}]}, {"smiles": "Cc1nc2ccccc2c(=O)n1-c1ccc(Cl)c(Cl)c1", "values": [{"measurement": "inhibition", "setting": "[2]; EGFP decrease, at 10 µM", "value": 12.7, "unit": "%"}, {"measurement": "inhibition", "setting": "[2]; at 20 µM", "value": "12.7% (inactive)"}]}, {"smiles": "CCn1c(COc2ccc(=O)n(-c3ccccc3)n2)nnc1SCc1ccccc1C", "values": [{"measurement": "inhibition", "setting": "[2]; EGFP decrease, at 10 µM", "value": 4.8, "unit": "%"}, {"measurement": "inhibition", "setting": "[2]; at 20 µM", "value": "20.9% (inactive)"}]}, {"smiles": "Nc1cnn(C2OC(CO)C(O)C2O)c(=O)n1", "note": "(stereo not drawn)", "values": [{"measurement": "inhibition", "setting": "[2]; EGFP decrease, at 10 µM", "value": 18.6, "unit": "%"}, {"measurement": "inhibition", "setting": "[2]; at 20 µM", "value": "22.1% (inactive)"}]}, {"smiles": "O=C(Nc1cccc(-c2csc(Nc3ccc(Cl)cc3)n2)c1)c1cc([N+](=O)[O-])cc(C(F)(F)F)c1", "values": [{"measurement": "inhibition", "setting": "[2]; EGFP decrease, at 10 µM", "value": 32.2, "unit": "%"}, {"measurement": "inhibition", "setting": "[2]; at 20 µM", "value": "21.2% (inactive)"}]}, {"smiles": "CC(=O)c1ccc(OCc2cc(C(=O)NC3CCCCC3)no2)cc1", "values": [{"measurement": "inhibition", "setting": "[2]; EGFP decrease, at 10 µM", "value": 15.2, "unit": "%"}, {"measurement": "inhibition", "setting": "[2]; at 20 µM", "value": "9.5% (inactive)"}]}, {"smiles": "Fc1ccc(NC(=S)NCc2cccnc2)cc1", "values": [{"measurement": "inhibition", "setting": "[2]; EGFP decrease, at 10 µM", "value": 28.3, "unit": "%"}, {"measurement": "inhibition", "setting": "[2]; at 20 µM", "value": "8.7% (inactive)"}]}, {"smiles": "COc1cc2c(cc1OC)/C(=C/C#N)NC(C)(C)C2", "values": [{"measurement": "inhibition", "setting": "[2]; EGFP decrease, at 10 µM", "value": 6.8, "unit": "%"}, {"measurement": "inhibition", "setting": "[2]; at 20 µM", "value": "8% (inactive)"}]}, {"smiles": "CC1CCC(NCc2ccco2)CC1", "note": "(stereo not drawn)", "values": [{"measurement": "inhibition", "setting": "[2]; EGFP decrease, at 10 µM", "value": -0.9, "unit": "%"}, {"measurement": "inhibition", "setting": "[2]; at 20 µM", "value": "18.9% (inactive)"}]}, {"smiles": "Cc1cc(C)cc(N2C(=O)N(c3ccccc3C)C3CS(=O)(=O)CC32)c1", "note": "(stereo not drawn)", "values": [{"measurement": "inhibition", "setting": "[2]; EGFP decrease, at 10 µM", "value": 9.1, "unit": "%"}, {"measurement": "inhibition", "setting": "[2]; at 20 µM", "value": "28.7% (inactive)"}]}, {"smiles": "Nc1ccc2c(c1)C(=O)C(=O)c1ccccc1-2", "values": [{"measurement": "IC50", "setting": "[1]", "value": 30.8, "unit": "µM"}, {"measurement": "inhibition", "setting": "[2]; EGFP decrease, at 10 µM", "value": 3.5, "unit": "%"}]}, {"smiles": "c1ccc(-c2cn3c(n2)CCc2ccc4cccnc4c2-3)cc1", "values": [{"measurement": "inhibition", "setting": "[2]; EGFP decrease, at 10 µM", "value": -17.2, "unit": "%"}, {"measurement": "inhibition", "setting": "[2]; at 20 µM", "value": "-5% (inactive)"}]}]}
